The nature of data set [1]: The compound was tested In Vitro for half life in human liver microsomes. Format: ADME, Microsome.
For the next data set, the target named is T1, D(4) dopamine receptor (Homo sapiens, UniProt P21917).
T1 sequence (P21917 whole entry): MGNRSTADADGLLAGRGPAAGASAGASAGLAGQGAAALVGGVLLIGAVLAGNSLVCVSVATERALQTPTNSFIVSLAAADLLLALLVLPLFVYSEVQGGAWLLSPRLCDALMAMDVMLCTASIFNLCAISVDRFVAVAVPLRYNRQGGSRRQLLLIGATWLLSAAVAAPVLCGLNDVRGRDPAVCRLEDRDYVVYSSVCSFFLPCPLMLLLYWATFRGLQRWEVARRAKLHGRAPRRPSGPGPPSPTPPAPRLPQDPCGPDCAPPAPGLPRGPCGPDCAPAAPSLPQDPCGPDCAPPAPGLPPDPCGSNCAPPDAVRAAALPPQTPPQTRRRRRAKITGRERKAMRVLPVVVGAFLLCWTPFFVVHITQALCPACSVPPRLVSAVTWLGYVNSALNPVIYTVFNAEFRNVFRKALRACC
The experiment in a line: biochemical.

In data set [2] the target is T2, 5-hydroxytryptamine receptor 1A (Mus musculus, UniProt Q64264).
T2 sequence (Q64264 whole entry): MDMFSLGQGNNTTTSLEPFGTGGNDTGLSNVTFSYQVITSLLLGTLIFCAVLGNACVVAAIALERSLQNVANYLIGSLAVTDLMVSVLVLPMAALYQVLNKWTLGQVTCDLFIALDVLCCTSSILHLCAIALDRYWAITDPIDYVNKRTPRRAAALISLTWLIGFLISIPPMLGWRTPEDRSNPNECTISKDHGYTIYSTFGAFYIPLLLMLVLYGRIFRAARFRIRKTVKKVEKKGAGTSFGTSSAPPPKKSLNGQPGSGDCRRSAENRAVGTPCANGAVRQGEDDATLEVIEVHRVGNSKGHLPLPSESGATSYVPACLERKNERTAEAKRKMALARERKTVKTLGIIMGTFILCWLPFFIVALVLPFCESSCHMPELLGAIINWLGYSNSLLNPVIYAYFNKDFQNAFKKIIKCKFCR
The experiment in a line: In vitro binding affinity against 5-hydroxytryptamine 1A receptor in CHO cells. Format: cell-based.

The target in data set [3] is 5-hydroxytryptamine receptor 2A (Homo sapiens, UniProt P28223). Put plainly: In vitro binding affinity against 5-hydroxytryptamine 2A receptor in CHO cells. It counts as cell-based.
Sequence of 5-hydroxytryptamine receptor 2A (P28223 whole entry): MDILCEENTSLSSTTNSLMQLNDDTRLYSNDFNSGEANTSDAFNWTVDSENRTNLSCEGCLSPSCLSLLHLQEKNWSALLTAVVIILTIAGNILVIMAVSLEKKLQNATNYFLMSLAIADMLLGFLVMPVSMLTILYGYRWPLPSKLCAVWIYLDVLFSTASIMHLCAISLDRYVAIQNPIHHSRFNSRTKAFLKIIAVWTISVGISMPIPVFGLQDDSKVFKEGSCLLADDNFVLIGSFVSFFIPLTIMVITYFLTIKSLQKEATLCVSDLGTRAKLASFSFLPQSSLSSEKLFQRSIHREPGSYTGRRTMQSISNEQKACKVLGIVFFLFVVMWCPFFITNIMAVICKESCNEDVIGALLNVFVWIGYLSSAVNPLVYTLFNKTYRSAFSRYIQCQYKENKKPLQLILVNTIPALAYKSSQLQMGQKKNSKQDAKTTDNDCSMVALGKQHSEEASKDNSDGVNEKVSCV
Data set [4] is described as follows: In vivo maximum concentration of compound in rat plasma after a oral dose of 10 mg/kg (in water, N=4). It counts as ADME, organism-based. Set-up: dose 10 mg/kg, route oral.
Data set [5] is described as follows: In vivo percentage mean absolute bioavailability of compound in rat after an oral dose of 10 mg/kg (in water, N=4). Format: ADME, organism-based.
Another data set addresses D(3) dopamine receptor (Homo sapiens, UniProt P35462). The experiment in a line: In vitro binding affinity against human D3 dopamine receptor in CHO cells using [3H]spiperone. Format: cell-based.
The test system of data set [6] is Rattus norvegicus. Put plainly: in vivo for inhibition against hyperactivity induced by apomorphine (1.78 mg/kg) in habituated rats by subcutaneous administration. The note with it: sc, read-out: ID50 (the source's name). It counts as functional.
For data set [7], the system named is Rattus norvegicus. Put plainly: in vivo for inhibition against hyperactivity induced by apomorphine (1.78 mg/kg) in habituated rats by oral administration. Format: functional. The note with it: read-out: ID50 (the source's name).
In data set [8] the test system is Rattus norvegicus. Put plainly: Compound was tested for antagonistic activity against APO-induced stereotypy in rats when administered po. The note with it: read-out: ID50 (the source's name). It counts as functional.
The subject of data set [9] is Rattus norvegicus. Put plainly: Compound was tested for inhibition of APO-induced blockade of prepulse inhibition in rats when administered sc. Format: functional. Conditions: read-out: ID50 (the source's name).
In data set [10] the test system is Rattus norvegicus. Put plainly: Compound was tested for spontaneous locomotor activity in nonhabituated rats when administered po. Format: functional. The note with it: read-out: ID50 (the source's name).
Data set [11] is described as follows: In vivo half life of compound in rat plasma after a oral dose of 10 mg/kg (in water, N=4). Format: ADME, organism-based. Set-up: dose 10 mg/kg, route oral.

Each structure is given as a SMILES string. Bounds are passed on as bounds.

Broadly, the half-life is the time in which the quantity being followed falls by half. Low values mean rapid decline, high ones slow decline. In general, Ki refers to the equilibrium dissociation constant of an inhibitor or competing ligand from its target. Usually IC50 stands for the concentration that inhibits the measured activity by half. High values mean weaker potency in that assay, low ones greater potency in that assay. By Cmax is commonly meant the highest concentration seen after dosing. As usually defined, the bioavailability is dose-corrected exposure relative to a reference, in per cent.

Sequence of D(3) dopamine receptor (P35462 whole entry): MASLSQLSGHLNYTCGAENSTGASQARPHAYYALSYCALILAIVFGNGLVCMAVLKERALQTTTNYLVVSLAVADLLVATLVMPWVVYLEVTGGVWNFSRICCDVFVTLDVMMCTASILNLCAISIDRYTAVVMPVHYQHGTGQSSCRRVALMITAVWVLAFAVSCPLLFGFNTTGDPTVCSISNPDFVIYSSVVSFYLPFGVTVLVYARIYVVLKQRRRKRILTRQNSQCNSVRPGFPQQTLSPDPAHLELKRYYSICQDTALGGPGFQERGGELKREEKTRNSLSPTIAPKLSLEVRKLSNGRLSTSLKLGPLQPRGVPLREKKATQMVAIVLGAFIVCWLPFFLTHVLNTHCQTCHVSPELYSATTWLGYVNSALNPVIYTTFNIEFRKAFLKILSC
Description for D(4) dopamine receptor: In vitro binding affinity at human D4 dopamine receptor in CHO cells by [3H]spiperone displacement.

In data set [1], `c1ccc(OC[C@@H]2CC[C@H]3CN(c4ncccn4)CCN3C2)cc1` returned a half-life of 3 min. This compound returned an inhibition constant Ki on D(4) dopamine receptor of 3.5 nM.
The compound `COC(=O)c1ccc(OC[C@@H]2CC[C@H]3CN(c4ncccn4)CCN3C2)cc1` returned a Ki at D(4) dopamine receptor of 127 nM.
On the same count and under the same terms, next, `CC(=O)Nc1ccc(OC[C@@H]2CC[C@H]3CN(c4ncccn4)CCN3C2)cc1`: 316 nM.
On the same count and under the same terms, the same measure for `Fc1ccc(OC[C@@H]2CC[C@H]3CN(c4ccc(F)cc4)CCN3C2)cc1`: 5.3 nM.
The compound `Fc1ccc(OC[C@@H]2CC[C@H]3CN(c4ncccn4)CCN3C2)cc1` registered a half-life in data set [1] of 3.6 min. Besides, the inhibition constant (Ki) at D(4) dopamine receptor turned out to be 2.8 nM.
In the case of `c1ccc(OC[C@@H]2CC[C@H]3CN(c4ccccn4)CCN3C2)cc1`, the Ki at D(4) dopamine receptor was 1.7 nM.
In turn, `CC(C)(C)c1ccc(OC[C@@H]2CC[C@H]3CN(c4ncccn4)CCN3C2)cc1` came in with an inhibition constant (Ki) on D(4) dopamine receptor of 20 nM.
The same measure, in the same setting: next, `COc1ccc(OC[C@@H]2CC[C@H]3CN(c4ncccn4)CCN3C2)cc1`: 18 nM; `Fc1ccc(OC[C@H]2CC[C@H]3CN(c4ncc(F)cn4)CCN3C2)cc1`: 2 nM; `c1ccc(OC[C@H]2CC[C@H]3CN(c4ncccn4)CCN3C2)cc1` (stereo in doubt; 3a): 4.1 nM.
For the compound `Fc1ccc(OC[C@@H]2CC[C@H]3CN(c4ncc(F)cn4)CCN3C2)cc1`, the figures for the IC50 in data set [2] and in data set [3] were 180 nM and 150 nM, respectively. This compound also returned a peak concentration (Cmax) in [4] of 730 ng/mL. The results for the half-life in [1] and in [11] were 12.2 min and 270 min, respectively. In addition, the bioavailability in data set [5] came to 93%. The figures for the Ki at D(3) dopamine receptor and on D(4) dopamine receptor were greater than 2000 nM and 3.4 nM, respectively. The ED50 with Rattus norvegicus [6] was 10 mg/kg; with Rattus norvegicus [7], 13.3 mg/kg; in the data set on Rattus norvegicus [8], greater than 56 mg/kg; in the data set with Rattus norvegicus [9] it was 17.8 mg/kg; in the data set with Rattus norvegicus [10], greater than 56 mg/kg.
Regarding `Fc1ccc(OC[C@H]2CC[C@@H]3CN(c4ncc(F)cn4)CCN3C2)cc1`, the inhibitory constant (Ki) at D(4) dopamine receptor was 106 nM.
Consider `c1ccc(OC[C@H]2CC[C@H]3CN(c4ncccn4)CCN3C2)cc1` (stereo in doubt; 3b), for which, on D(4) dopamine receptor, the affinity, expressed as Ki, was 1.7 nM.
The same measure, in the same setting: next, `c1ccc(OC[C@@H]2CC[C@H]3CN(c4ccccc4)CCN3C2)cc1`: 1.6 nM.
Same read-out and setting: next, `Fc1ccc(OC[C@@H]2CC[C@@H]3CN(c4ncc(F)cn4)CCN3C2)cc1`: 39 nM; `Fc1ccc(OC[C@@H]2CC[C@H]3CN(c4ccc(Cl)cn4)CCN3C2)cc1`: 3.2 nM; `c1ccc(OCC2CCC3CN(c4ncccn4)CCN3C2)cc1` (stereo unspecified): 3.8 nM.

For the origin of these results see ChEMBL document CHEMBL1131659, “Synthesis, SAR and pharmacology of CP-293,019: a potent, selective dopamine D4 receptor antagonist” (Bioorg Med Chem Lett, 1998).
